Data as given in PubChem BioAssay AID306 (DTP/NCI, 2004).
“And” between values parts separate entries of the source, which are not always exact repeats. Equal entries are not always repeated. Toxic doses and inconclusive results are not listed.

Test system: BDF1 mice, L1210 Methyl-GAG-resistant leukemia, survival T/C
Assay: NCI In Vivo Anticancer Drug Screen. Data for tumor model L1210 Leukemia resistant to Methyl-GAG; NSC 32946 (subcutaneous) in B6D2F1 (BDF1) mice
Conditions: endpoint: mean survival time, higher = longer survival
Protocol: The antitumor activity of compounds was measured in mice bearing transplantable tumors. Survival or tumor size were measured and the results are expressed as the measurement made in the treated group (T) divided by the measurement made in the vehicle treated control group (C). The tumor model used in this assay is L1210 Leukemia resistant to Methyl-GAG; NSC 32946 (subcutaneous) in B6D2F1 (BDF1) mice

[1] = dose: 31.0 mg/kg/injection, schedule: Q01DX Z (ip), vehicle: carboxymethylcellulose (CMC)
[2] = dose: 62.5 mg/kg/injection, schedule: Q01DX Z (ip), vehicle: carboxymethylcellulose (CMC)
[3] = dose: 125.0 mg/kg/injection, schedule: Q01DX Z (ip), vehicle: carboxymethylcellulose (CMC)
[4] = dose: 12.5 mg/kg/injection, schedule: Q01DX Z (ip), vehicle: carboxymethylcellulose (CMC)
[5] = dose: 25.0 mg/kg/injection, schedule: Q01DX Z (ip), vehicle: carboxymethylcellulose (CMC)
[6] = dose: 50.0 mg/kg/injection, schedule: Q01DX Z (ip), vehicle: carboxymethylcellulose (CMC)
[7] = dose: 100.0 mg/kg/injection, schedule: Q01DX Z (ip), vehicle: carboxymethylcellulose (CMC)
[8] = dose: 200.0 mg/kg/injection, schedule: Q01DX Z (ip), vehicle: carboxymethylcellulose (CMC)
[9] = dose: 250.0 mg/kg/injection, schedule: Q01DX Z (ip), vehicle: carboxymethylcellulose (CMC)
[10] = dose: 500.0 mg/kg/injection, schedule: Q01DX Z (ip), vehicle: carboxymethylcellulose (CMC)
[11] = dose: 1000.0 mg/kg/injection, schedule: Q01DX Z (ip), vehicle: carboxymethylcellulose (CMC)
[12] = dose: 25.0 mg/kg/injection, schedule: Q01DX Z (sc), vehicle: steriod suspending solution
[13] = dose: 50.0 mg/kg/injection, schedule: Q01DX Z (sc), vehicle: steriod suspending solution
[14] = dose: 100.0 mg/kg/injection, schedule: Q01DX Z (sc), vehicle: steriod suspending solution
[15] = dose: 200.0 mg/kg/injection, schedule: Q01DX Z (sc), vehicle: steriod suspending solution
[16] = dose: 400.0 mg/kg/injection, schedule: Q01DX Z (sc), vehicle: steriod suspending solution

CCCCNc1ncnc2c1cnn2C
T/C (dose: 4.0 mg/kg/injection, schedule: Q01DX Z (ip), vehicle: carboxymethylcellulose (CMC)): 106 % of control | T/C (dose: 8.0 mg/kg/injection, schedule: Q01DX Z (ip), vehicle: carboxymethylcellulose (CMC)): 106 % of control | T/C (dose: 8.8 mg/kg/injection, schedule: Q01DX Z (ip), vehicle: carboxymethylcellulose (CMC)): 102 % of control | T/C (dose: 15.6 mg/kg/injection, schedule: Q01DX Z (ip), vehicle: carboxymethylcellulose (CMC)): 110 % of control | T/C [1]: 112 % of control | T/C (dose: 31.2 mg/kg/injection, schedule: Q01DX Z (ip), vehicle: carboxymethylcellulose (CMC)): 107 % of control | T/C [2]: 100 % of control | T/C [3]: 98 % of control

CSc1ncnc2nc[nH]c12
T/C [4]: 106 % of control | T/C [5]: 111 % of control | T/C [6]: 106 % of control | T/C [7]: 115 % of control | T/C [8]: 97 % of control

O=c1cn[nH]c(=O)[nH]1
T/C [2]: 96 % of control | T/C [3]: 106 % of control | T/C [9]: 116 % of control | T/C [10]: 114 % of control | T/C [11]: 112 % of control

O=C(Nc1ccc(NC2=NCCN2)cc1)c1ccc(C(=O)Nc2ccc(NC3=NCCN3)cc2)cc1
T/C (dose: 0.5 mg/kg/injection, schedule: Q01DX Z (ip), vehicle: saline): 101 % of control | T/C (dose: 1.0 mg/kg/injection, schedule: Q01DX Z (ip), vehicle: saline): 100 % of control | T/C (dose: 2.0 mg/kg/injection, schedule: Q01DX Z (ip), vehicle: saline): 100 % of control | T/C (dose: 8.0 mg/kg/injection, schedule: Q01DX Z (ip), vehicle: saline): 196 % of control | T/C (dose: 32.0 mg/kg/injection, schedule: Q01DX Z (ip), vehicle: saline): 113 % of control | T/C (dose: 64.0 mg/kg/injection, schedule: Q01DX Z (ip), vehicle: saline): 95 % of control

CN(N=O)C(=O)NC(C=O)C(O)C(O)C(O)CO (centres undefined)
T/C (dose: 12.5 mg/kg/injection, schedule: Q01DX Z (ip), vehicle: saline): 101 % of control | T/C (dose: 25.0 mg/kg/injection, schedule: Q01DX Z (ip), vehicle: saline): 106 % of control and 113 % of control | T/C (dose: 50.0 mg/kg/injection, schedule: Q01DX Z (ip), vehicle: saline): 105 % of control and 110 % of control | T/C (dose: 100.0 mg/kg/injection, schedule: Q01DX Z (ip), vehicle: saline): 160 % of control | T/C (dose: 200.0 mg/kg/injection, schedule: Q01DX Z (ip), vehicle: saline): 90 % of control

O=c1[nH]c(=O)n(C2CC(O)C(CO)O2)cc1Br (centres undefined)
T/C [1]: 95 % of control | T/C (dose: 63.0 mg/kg/injection, schedule: Q01DX Z (ip), vehicle: carboxymethylcellulose (CMC)): 92 % of control | T/C [3]: 113 % of control | T/C [10]: 118 % of control | T/C [11]: 120 % of control

N#[N+]c1cnc([O-])[nH]c1=O
T/C (dose: 5.0 mg/kg/injection, schedule: Q01DX Z (ip), vehicle: carboxymethylcellulose (CMC)): 88 % of control | T/C (dose: 10.0 mg/kg/injection, schedule: Q01DX Z (ip), vehicle: carboxymethylcellulose (CMC)): 88 % of control

CN(C)c1ccc(Nc2c3ccccc3nc3ccccc23)cc1
T/C (dose: 1.6 mg/kg/injection, schedule: Q01DX Z (ip), vehicle: carboxymethylcellulose (CMC)): 105 % of control | T/C (dose: 3.1 mg/kg/injection, schedule: Q01DX Z (ip), vehicle: carboxymethylcellulose (CMC)): 99 % of control | T/C (dose: 6.25 mg/kg/injection, schedule: Q01DX Z (ip), vehicle: carboxymethylcellulose (CMC)): 100 % of control | T/C [4]: 103 % of control | T/C [5]: 115 % of control | T/C [8]: 91 % of control

Nc1ncnc2c1ccn2C1OC(CO)C(O)C1O (centres undefined)
T/C (dose: 0.31 mg/kg/injection, schedule: Q01DX Z (ip), vehicle: carboxymethylcellulose (CMC)): 89 % of control and 97 % of control | T/C (dose: 0.63 mg/kg/injection, schedule: Q01DX Z (ip), vehicle: carboxymethylcellulose (CMC)): 91 % of control and 102 % of control | T/C (dose: 1.25 mg/kg/injection, schedule: Q01DX Z (ip), vehicle: carboxymethylcellulose (CMC)): 97 % of control and 112 % of control | T/C (dose: 2.5 mg/kg/injection, schedule: Q01DX Z (ip), vehicle: carboxymethylcellulose (CMC)): 94 % of control

O=c1[nH]c(=O)n(C2CC(O)C(CO)O2)cc1F (centres undefined)
T/C [5]: 112 % of control | T/C [7]: 121 % of control | T/C [8]: 87 % of control and 103 % of control

CCCCCCCCCCCCNCCCCCCCCCCCC
T/C (dose: 7.5 mg/kg/injection, schedule: Q01DX Z (ip), vehicle: carboxymethylcellulose (CMC)): 94 % of control | T/C (dose: 15.0 mg/kg/injection, schedule: Q01DX Z (ip), vehicle: carboxymethylcellulose (CMC)): 101 % of control | T/C (dose: 30.0 mg/kg/injection, schedule: Q01DX Z (ip), vehicle: carboxymethylcellulose (CMC)): 103 % of control

O=C(Nc1ccc(C2=NCCCN2)cc1)c1ccc(C(=O)Nc2ccc(C3=NCCCN3)cc2)cc1
T/C (dose: 0.2 mg/kg/injection, schedule: Q01DX Z (ip), vehicle: water): 100 % of control | T/C (dose: 0.4 mg/kg/injection, schedule: Q01DX Z (ip), vehicle: water): 108 % of control | T/C (dose: 0.8 mg/kg/injection, schedule: Q01DX Z (ip), vehicle: water): 121 % of control | T/C (dose: 1.6 mg/kg/injection, schedule: Q01DX Z (ip), vehicle: water): 158 % of control and 211 % of control | T/C (dose: 3.1 mg/kg/injection, schedule: Q01DX Z (ip), vehicle: water): 212 % of control

O=CN(O)CC(=O)O
T/C [2]: 108 % of control | T/C [3]: 101 % of control | T/C [9]: 101 % of control | T/C [10]: 102 % of control and 110 % of control | T/C [11]: 105 % of control

c1ccc(CNc2ncnc3[nH]ncc23)cc1
T/C (dose: 0.97 mg/kg/injection, schedule: Q01DX Z (ip), vehicle: carboxymethylcellulose (CMC)): 107 % of control | T/C (dose: 1.95 mg/kg/injection, schedule: Q01DX Z (ip), vehicle: carboxymethylcellulose (CMC)): 102 % of control | T/C (dose: 3.9 mg/kg/injection, schedule: Q01DX Z (ip), vehicle: carboxymethylcellulose (CMC)): 108 % of control and 121 % of control | T/C (dose: 7.8 mg/kg/injection, schedule: Q01DX Z (ip), vehicle: carboxymethylcellulose (CMC)): 100 % of control and 103 % of control | T/C (dose: 15.5 mg/kg/injection, schedule: Q01DX Z (ip), vehicle: carboxymethylcellulose (CMC)): 107 % of control | T/C [1]: 110 % of control

O=C(Nc1ccc(C2=NCCN2)cc1)c1cccc(C(=O)Nc2ccc(C3=NCCN3)cc2)c1
T/C (dose: 1.2 mg/kg/injection, schedule: Q01DX Z (ip), vehicle: water): 102 % of control | T/C (dose: 2.4 mg/kg/injection, schedule: Q01DX Z (ip), vehicle: water): 108 % of control | T/C (dose: 9.4 mg/kg/injection, schedule: Q01DX Z (ip), vehicle: water): 211 % of control | T/C (dose: 12.5 mg/kg/injection, schedule: Q01DX Z (ip), vehicle: water): 223 % of control | T/C (dose: 18.8 mg/kg/injection, schedule: Q01DX Z (ip), vehicle: water): 226 % of control | T/C (dose: 25.0 mg/kg/injection, schedule: Q01DX Z (ip), vehicle: water): 236 % of control | T/C (dose: 37.5 mg/kg/injection, schedule: Q01DX Z (ip), vehicle: carboxymethylcellulose (CMC)): 202 % of control | T/C (dose: 37.5 mg/kg/injection, schedule: Q01DX Z (ip), vehicle: water): 287 % of control | T/C (dose: 50.0 mg/kg/injection, schedule: Q01DX Z (ip), vehicle: water): 113 % of control | T/C (dose: 75.0 mg/kg/injection, schedule: Q01DX Z (ip), vehicle: carboxymethylcellulose (CMC)): 224 % of control | T/C (dose: 150.0 mg/kg/injection, schedule: Q01DX Z (ip), vehicle: carboxymethylcellulose (CMC)): 247 % of control

Clc1ccc(C(c2ccccc2Cl)C(Cl)Cl)cc1 (centres undefined)
T/C (dose: 12.5 mg/kg/injection, schedule: Q01DX Z (sc), vehicle: steriod suspending solution): 105 % of control | T/C [12]: 102 % of control | T/C [13]: 98 % of control | T/C [14]: 100 % of control | T/C [15]: 105 % of control | T/C [16]: 101 % of control | T/C (dose: 800.0 mg/kg/injection, schedule: Q01DX Z (sc), vehicle: steriod suspending solution): 109 % of control

CN(Cc1cnc2nc(N)nc(N)c2n1)c1c(Cl)cc(C(=O)NC(CCC(=O)O)C(=O)O)cc1Cl (centres undefined)
T/C [4]: 116 % of control | T/C [6]: 195 % of control | T/C [7]: 317 % of control

C[C@]12C=CC(=O)C=C1CC[C@@H]1[C@@H]2C(=O)C[C@@]2(C)[C@H]1CC[C@]2(O)C(=O)CO
T/C [12]: 91 % of control and 115 % of control | T/C [13]: 103 % of control | T/C [14]: 150 % of control | T/C [15]: 115 % of control | T/C [16]: 112 % of control and 118 % of control
